Assays:
Type in all cases: biochemical
hABHD12 = target: T1, hABHD12 (Homo sapiens, UniProt Q8N2K0); experiment: Reversibility testing, 40-fold dilution of enzyme-inhibitor complex; conditions: time points 10, 20, 30, 60 and 90 min
T1 construct: expressed in transfected cells; host or cells: HEK293 (transient)
T1 sequence (Q8N2K0 1-398): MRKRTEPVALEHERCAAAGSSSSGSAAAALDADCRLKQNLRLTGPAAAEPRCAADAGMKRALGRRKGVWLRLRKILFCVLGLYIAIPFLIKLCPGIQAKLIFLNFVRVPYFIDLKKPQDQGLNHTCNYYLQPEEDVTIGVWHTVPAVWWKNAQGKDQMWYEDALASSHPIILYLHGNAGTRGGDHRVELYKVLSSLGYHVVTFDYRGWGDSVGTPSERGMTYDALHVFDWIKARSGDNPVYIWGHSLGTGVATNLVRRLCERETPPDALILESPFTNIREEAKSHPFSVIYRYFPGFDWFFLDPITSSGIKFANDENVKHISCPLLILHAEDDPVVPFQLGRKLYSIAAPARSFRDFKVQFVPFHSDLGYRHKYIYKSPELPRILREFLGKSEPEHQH
Protocol: Reversibility testing was carried out as previously described. Briefly, DMSO/inhibitor (0.5 µl) was incubated together with hABHD12-HEK293 lysate (4.5 µl, 0.3 µg protein/well) in TEMN-BSA buffer for 30 min. After this, a 40-fold dilution of enzyme-inhibitor complex was brought about by addition of the substrate [1-AG, 12.5 µM final concentration, containing additionally 1% EtOH (v/v)] in 195 µl of glycerol assay mix and fluorescence was kinetically monitored at 10 min intervals for 90 min at RT.

hCB2R = target: T2, hCB2R (Homo sapiens, UniProt P34972); experiment: [35S]GTPγS binding, CB2R agonist activity, hCB2R-CHO cell membranes; conditions: 10 µM
T2 construct: expressed in transfected cells; host or cells: CHO

hFAAH = target: T3, hFAAH (Homo sapiens, UniProt O00519); experiment: FAAH activity, membranes of hFAAH overexpressing COS-7 cells, 3H-anandamide; conditions: read-out: hFAAH Remaining activity % control (mean (range)), n=2
T3 construct: expressed in transfected cells; host or cells: COS-7
T3 sequence (O00519 1-579): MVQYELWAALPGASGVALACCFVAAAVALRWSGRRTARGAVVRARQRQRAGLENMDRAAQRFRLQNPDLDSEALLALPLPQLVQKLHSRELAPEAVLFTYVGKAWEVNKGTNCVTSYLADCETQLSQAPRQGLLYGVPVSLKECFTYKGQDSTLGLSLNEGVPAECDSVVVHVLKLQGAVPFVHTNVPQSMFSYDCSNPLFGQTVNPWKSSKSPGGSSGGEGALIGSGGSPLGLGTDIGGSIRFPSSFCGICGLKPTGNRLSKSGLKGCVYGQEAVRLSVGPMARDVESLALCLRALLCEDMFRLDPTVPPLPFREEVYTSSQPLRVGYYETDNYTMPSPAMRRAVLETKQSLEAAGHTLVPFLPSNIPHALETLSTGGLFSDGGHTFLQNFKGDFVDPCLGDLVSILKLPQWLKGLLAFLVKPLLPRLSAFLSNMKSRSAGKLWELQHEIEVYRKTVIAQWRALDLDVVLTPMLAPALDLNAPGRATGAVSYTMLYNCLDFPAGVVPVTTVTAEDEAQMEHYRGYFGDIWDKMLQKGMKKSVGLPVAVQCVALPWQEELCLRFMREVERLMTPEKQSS
Protocol: (§1) Glycerol liberated from 1-AG hydrolysis was determined with a sensitive fluorescent assay using lysates of HEK293 cells with transient overexpression of hABHD12, hABHD6 or hMAGL, essentially as previously described. […] Fluorescence (λex 530; λem 590 nm) was monitored using a Tecan Infinite M200 plate reader (Tecan Group Ltd., Männedorf, Switzerland). Inhibitory activities of selected compounds towards FAAH were determined using membranes of hFAAH overexpressing COS-7 cells, essentially as previously described. The final incubation volume (100 µL) contained 1 µg of protein and the substrate concentration was 20 µM (10 nM of ^3H-anandamide having specific activity of 60 Ci/mmol and concentration of 1 mCi/mL).

CB1R = target: T4, CB1R (Rattus norvegicus, UniProt P20272); experiment: [35S]GTPγS binding, CB1R agonist activity, rat cerebellar membranes; conditions: 10 µM
T4 construct: membranes prepared from brain tissue of 4-week-old male rodents were used; from tissue; host or cells: rat cerebellar membranes
Protocol: The CB1 and CB2 receptor activity of the selected compounds (10 µM) were measured using the GTPγS binding assay according to the previously described methods, [33].
For ABPP experiments (Figure 6C) and cannabinoid receptor activity assays (Table S2), membranes prepared from brain tissue of 4-week-old male rodents were used. The animals were obtained from the National Laboratory Animal Centre, University of Eastern Finland. Approval for the harvesting of animal tissue was obtained from the local welfare officer of the University of Eastern Finland.

[1] = system: metabolic serine hydrolases; experiment: Competitive ABPP, other serine hydrolases of mouse brain membrane proteome
Protocol: Competitive ABPP using HEK293 cell lysates and mouse brain membranes was conducted to visualize effects of selected triterpenoids on the binding of the active site serine-targeting fluorescent fluorophosphonate probe TAMRA-FP following outlines of previous protocols, [31]. Briefly, lysates (25 µg) of HEK293 cells with or without (Mock) hABHD12 overexpression or mouse wholebrain membranes (100 µg) were treated for 1 h with DMSO or the inhibitor, after which TAMRA-FP labelling was conducted for 5 min (lysates) or 1 hour (membranes) at RT (final probe concentration 2 µM). The reaction was quenched by addition of gel loading buffer (followed by boiling for 5 min in the case of lysates), after which 10 µg protein (10 µl) was loaded per lane and the proteins were resolved in 10% SDS-PAGE together with standards. TAMRA-FP labeling was visualized (λex 552; λem 575 nm) by a fluorescent reader (FLA-3000 laser fluorescence scanner, Fujifilm, Tokyo, Japan). The intensity of bands was quantified using ImageJ, a freely available image analysis software (http://rsbweb.nih.gov/ij/).
For ABPP experiments (Figure 6C) and cannabinoid receptor activity assays (Table S2), membranes prepared from brain tissue of 4-week-old male rodents were used. The animals were obtained from the National Laboratory Animal Centre, University of Eastern Finland. […]

hMAGL = target: T5, hMAGL (Homo sapiens, UniProt Q99685); experiment: Fluorescent glycerol assay in hMAGL-HEK293 lysates; conditions: 10 µM; read-out: hMAGL Remaining activity % control ± s.e.m (n=3)
T5 construct: expressed in transfected cells; host or cells: HEK293 (transient)
T5 sequence (Q99685 1-303): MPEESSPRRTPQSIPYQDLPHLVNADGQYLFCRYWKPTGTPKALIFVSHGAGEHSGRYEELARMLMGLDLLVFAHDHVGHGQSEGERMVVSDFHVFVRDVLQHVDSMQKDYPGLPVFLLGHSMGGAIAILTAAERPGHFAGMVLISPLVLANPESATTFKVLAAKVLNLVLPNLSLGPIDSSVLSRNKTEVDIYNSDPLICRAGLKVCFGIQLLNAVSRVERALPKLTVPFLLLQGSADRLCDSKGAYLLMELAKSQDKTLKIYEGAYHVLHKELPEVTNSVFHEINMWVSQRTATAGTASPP
Protocol: as §1

T4 sequence (P20272 whole entry): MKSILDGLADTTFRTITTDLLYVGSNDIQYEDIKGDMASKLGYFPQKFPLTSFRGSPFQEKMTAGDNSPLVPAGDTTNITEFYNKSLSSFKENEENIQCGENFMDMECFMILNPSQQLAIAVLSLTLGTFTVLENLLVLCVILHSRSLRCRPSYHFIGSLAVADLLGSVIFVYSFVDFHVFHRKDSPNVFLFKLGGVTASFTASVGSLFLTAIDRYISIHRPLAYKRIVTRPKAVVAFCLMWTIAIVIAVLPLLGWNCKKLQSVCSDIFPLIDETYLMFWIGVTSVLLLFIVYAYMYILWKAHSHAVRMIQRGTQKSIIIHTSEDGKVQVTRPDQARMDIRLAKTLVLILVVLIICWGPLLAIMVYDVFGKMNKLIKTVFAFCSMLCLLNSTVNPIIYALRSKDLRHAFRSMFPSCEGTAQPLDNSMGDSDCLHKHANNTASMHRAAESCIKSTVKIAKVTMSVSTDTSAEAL
T2 sequence (P34972 whole entry): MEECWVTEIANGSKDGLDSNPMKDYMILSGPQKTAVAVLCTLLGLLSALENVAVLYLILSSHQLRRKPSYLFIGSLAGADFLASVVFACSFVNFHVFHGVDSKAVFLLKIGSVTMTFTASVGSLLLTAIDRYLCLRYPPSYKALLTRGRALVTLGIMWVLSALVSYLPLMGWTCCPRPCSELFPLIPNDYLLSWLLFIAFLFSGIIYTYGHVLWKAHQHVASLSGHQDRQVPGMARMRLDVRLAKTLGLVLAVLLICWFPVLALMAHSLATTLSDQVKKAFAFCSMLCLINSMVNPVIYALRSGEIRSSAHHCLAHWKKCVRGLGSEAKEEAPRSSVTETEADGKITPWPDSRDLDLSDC

`CC1(C)CC[C@]2(C(=O)O)CC[C@]3(C)C(=CC[C@@H]4[C@@]5(C)C[C@@H](O)[C@H](O)C(C)(C)[C@@H]5CC[C@]43C)[C@@H]2C1` [Compound 8, Maslinic acid, reference compound] was tested, and the “time-dependency of inhibitor potency (IC50) after 40-fold dilution” value (hABHD12) was “time-dependent drop of inhibitor potency”, the “CB2R agonist activity [35S]GTPγS binding % Basal (Mean (range), n=2)” value (hCB2R) was 114 (104-123) % Basal and the remaining activity at 10 µM (hFAAH) was 83%. For the same molecule, the “CB1R agonist activity [35S]GTPγS binding % Basal (Mean (range), n=2)” value (CB1R) was 93 (88-97) % Basal, the “additional targets among the metabolic serine hydrolases” value [1] was “no additional targets are evident” and the remaining activity at 10 µM (hMAGL) was 95.6 ± 0.8%.

— paper PMC4045134, “Discovery of Triterpenoids as Reversible Inhibitors of α/β-hydrolase Domain Containing 12 (ABHD12)” (PLoS ONE, 2014)
